According to paper PMC8976378, “NADH oxidase of Mycoplasma hyopneumoniae functions as a potential mediator of virulence” (BMC Veterinary Research, 2022):

Molecular target: rNOX (NADH oxidase, NOX) (Mesomycoplasma hyopneumoniae, UniProt E4QS87)
Experiment: NADH oxidation, absorbance at […] nm
Assay type: biochemical
Conditions: 0.5 mM NADH; 10 uM FAD added; 0.1 M potassium phosphate pH 7.5, 1 mM dithiothreitol; 25 °C; 5 ug/mL enzyme

Chain of rNOX (NADH oxidase, NOX) (E4QS87 entry or part of it): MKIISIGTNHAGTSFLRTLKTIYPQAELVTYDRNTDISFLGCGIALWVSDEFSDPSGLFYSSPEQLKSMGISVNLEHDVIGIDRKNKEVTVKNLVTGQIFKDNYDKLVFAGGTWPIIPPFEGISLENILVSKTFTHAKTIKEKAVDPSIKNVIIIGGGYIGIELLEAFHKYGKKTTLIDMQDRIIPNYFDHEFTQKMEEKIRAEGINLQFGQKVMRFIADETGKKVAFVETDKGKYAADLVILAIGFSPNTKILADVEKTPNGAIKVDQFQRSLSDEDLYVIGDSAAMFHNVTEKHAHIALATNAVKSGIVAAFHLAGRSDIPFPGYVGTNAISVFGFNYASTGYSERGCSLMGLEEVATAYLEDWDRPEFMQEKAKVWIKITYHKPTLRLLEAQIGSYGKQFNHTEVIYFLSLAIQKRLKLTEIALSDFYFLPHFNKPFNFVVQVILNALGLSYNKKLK

Question: `NC(=O)C1=CN([C@@H]2O[C@H](COP(=O)(O)OP(=O)(O)OC[C@H]3O[C@@H](n4cnc5c(N)ncnc54)[C@H](O)[C@@H]3O)[C@@H](O)[C@H]2O)C=CC1` [NADH] was tested. Which “NADH oxidation, absorbance at 340 nm” value did it give?
Answer: enzymatic activity of purified rNOX was determined by measuring the oxidation of NADH to NAD^+
